Our source for the GI50 and TGI values is PubChem BioAssay (NCI).

Among the test systems are U251 CNS; NCI-H460 lung; OVCAR-3 ovarian; UACC-62 melanoma; SF-295 CNS; CCRF-CEM leukemia; SNB-19 CNS; HOP-62 NSCLC; UACC-257 melanoma; UO-31 renal.
Holding throughout (experiment): DTP human tumour cell line panel, 48 h

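Compound exposure: 48 hours, 5 concentrations, 96-well plates. The concentration for 50% growth inhibition is given as GI50. TGI denotes the concentration required for complete inhibition of growth.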

On to `O=C(O)[C@@H](Cc1ccc2ccccc2c1)NC(=O)n1c2ccccc2c2ccccc21`, for which the GI50 was 2.89 µM in the test on U251 CNS; 3.47 µM in the test with NCI-H460 lung; 1.81 µM in the test on OVCAR-3 ovarian; 0.435 µM in the test on UACC-62 melanoma; 2.29 µM in the test with SF-295 CNS; 0.77 µM in the test on CCRF-CEM leukemia. Moreover, the GI50 with SNB-19 CNS was 3.57 µM; with HOP-62 NSCLC, 3.21 µM; in the test with UACC-257 melanoma, 11.9 µM; in the test with UO-31 renal, 5.18 µM. Also, the TGI with U251 CNS came to 21.2 µM; in the test with NCI-H460 lung, 33.5 µM; with OVCAR-3 ovarian, 6.78 µM; in the test with UACC-62 melanoma, 16.1 µM; with SF-295 CNS, 8.97 µM; in the test on CCRF-CEM leukemia, 18 µM. The TGI in the test with SNB-19 CNS was 17 µM; with HOP-62 NSCLC, 15.3 µM; with UACC-257 melanoma it was greater than 100 µM; in the test with UO-31 renal, 45.5 µM.
As to `O=C(Nc1ccc(Cl)c(Cl)c1)NS(=O)(=O)c1cnccc1Oc1ccc(F)cc1`, the GI50 was 3.42 µM in the test on U251 CNS; 3.09 µM in the test on NCI-H460 lung; 2.79 µM in the test with OVCAR-3 ovarian; 4.16 µM in the test on UACC-62 melanoma; 1.65 µM in the test with SF-295 CNS; 2.47 µM with CCRF-CEM leukemia. Also, the GI50 in the test on SNB-19 CNS is 4.29 µM; in the test on HOP-62 NSCLC, 6.14 µM; with UACC-257 melanoma it was 4.72 µM; with UO-31 renal, 2.62 µM. Also, the TGI with U251 CNS was 37.2 µM; with NCI-H460 lung it was 20.1 µM; in the test on OVCAR-3 ovarian it was 8.11 µM; with UACC-62 melanoma, greater than 100 µM; in the test on SF-295 CNS, 4.8 µM; with CCRF-CEM leukemia, 7.55 µM. Besides, the TGI in the test with SNB-19 CNS is greater than 100 µM; with HOP-62 NSCLC, 51.2 µM; in the test with UACC-257 melanoma it was 24.4 µM; in the test with UO-31 renal it was 9.51 µM.
`O=[N+]([O-])c1ccc(Sc2c3ccccc3nc3cc(Cl)ccc23)cc1`: the GI50 in the test with U251 CNS, in the test on NCI-H460 lung, with OVCAR-3 ovarian, in the test with UACC-62 melanoma, in the test with SF-295 CNS and in the test with SNB-19 CNS was greater than 100 µM each time. For the same molecule, the GI50 in the test with HOP-62 NSCLC, in the test on UACC-257 melanoma and in the test on UO-31 renal was greater than 100 µM each time. In addition, the TGI in the test on U251 CNS, with NCI-H460 lung, in the test on OVCAR-3 ovarian, in the test with UACC-62 melanoma, with SF-295 CNS and in the test on CCRF-CEM leukemia was greater than 100 µM in each case. Moreover, the TGI in the test on SNB-19 CNS, in the test with HOP-62 NSCLC, in the test on UACC-257 melanoma and with UO-31 renal was greater than 100 µM in each case.
`CN(C)C(=S)/N=c1\ssc(=S)n1Cc1ccncc1`: the concentration for total growth inhibition (TGI) with U251 CNS is 39 µM; in the test on NCI-H460 lung, 31.5 µM; with OVCAR-3 ovarian, 32.9 µM; in the test with UACC-62 melanoma, 25.5 µM; with SF-295 CNS, 83.8 µM; in the test with CCRF-CEM leukemia it was 57 µM. Also, the TGI is greater than 100 µM in the test on SNB-19 CNS, 92.2 µM in the test on HOP-62 NSCLC, 83.5 µM with UACC-257 melanoma and 88.5 µM in the test on UO-31 renal.
As to `C[C@H]1CCCC(O)C(O)[C@@H]2C[C@H](O[Si](C)(C)C(C)(C)C)C[C@H]2[C@H](O[Si](C)(C)C(C)(C)C)C(O)C(O)C(=O)O1` (some centres undefined), the GI50 was 12.7 µM in the test with U251 CNS; 11 µM with NCI-H460 lung; 25 µM in the test on OVCAR-3 ovarian; 18.5 µM in the test on UACC-62 melanoma; 32 µM in the test on SF-295 CNS; 28 µM in the test on CCRF-CEM leukemia. Also, the GI50 in the test with SNB-19 CNS was 15.9 µM; with HOP-62 NSCLC, 11 µM; with UACC-257 melanoma, 35.2 µM; in the test on UO-31 renal, 42.2 µM. Further, the TGI is 30.9 µM in the test on U251 CNS; 23.9 µM in the test on NCI-H460 lung; 79.7 µM in the test with OVCAR-3 ovarian; 48.8 µM in the test with UACC-62 melanoma; greater than 100 µM with SF-295 CNS; greater than 100 µM with CCRF-CEM leukemia. Also, the TGI was 46.7 µM in the test on SNB-19 CNS, 27.6 µM in the test on HOP-62 NSCLC, greater than 100 µM in the test on UACC-257 melanoma and greater than 100 µM in the test with UO-31 renal.
In the case of `COc1ccc(OC)c(Cn2cc3c(c2-c2ccccc2)CCc2cnoc2-3)c1`, the GI50 with U251 CNS is 5.38 µM; in the test on NCI-H460 lung it was 3.3 µM; with OVCAR-3 ovarian, 2.7 µM; in the test on UACC-62 melanoma it was 3.8 µM; in the test on SF-295 CNS, 3.19 µM; with CCRF-CEM leukemia, 4.48 µM. Also, the GI50 was 9.43 µM with SNB-19 CNS, 9.13 µM in the test on HOP-62 NSCLC, 30.7 µM with UACC-257 melanoma and 6.38 µM with UO-31 renal. The TGI in the test with U251 CNS was greater than 100 µM; in the test on NCI-H460 lung, greater than 100 µM; in the test on OVCAR-3 ovarian, 7.95 µM; in the test with UACC-62 melanoma, greater than 100 µM; with SF-295 CNS it was greater than 100 µM; in the test on CCRF-CEM leukemia, greater than 100 µM. For the same molecule, the TGI in the test with SNB-19 CNS, in the test with HOP-62 NSCLC, in the test on UACC-257 melanoma and in the test on UO-31 renal was greater than 100 µM each time.
Consider `CCCCN(CC)CC(C(C)=O)c1c(O)c2ccccc2oc1=O` (centres undefined), for which the TGI with U251 CNS, in the test on NCI-H460 lung, in the test on OVCAR-3 ovarian, in the test on UACC-62 melanoma, with SF-295 CNS and with CCRF-CEM leukemia was greater than 100 µM in each case. For the same molecule, the TGI in the test on SNB-19 CNS, in the test with HOP-62 NSCLC, with UACC-257 melanoma and in the test with UO-31 renal was greater than 100 µM throughout.
